Laboratory results reported in patent US10968210B2, “Diamino-alkylamino-linked arylsulfonamide compounds with selective activity in voltage-gated sodium channels” (Merck Sharp & Dohme Corp., priority 2016, dated 2021).

Tests used:
[1] = target: T1, human Nav 1.5 channels stably expressed in HEK 293 cells (Homo sapiens, UniProt Q14524); test: IonWorks Quattro automated patch-clamp, inactivated state block of Nav 1.5 (reported as ratio to Nav 1.7 potency); format: cell-based; settings: selectivity for Nav 1.7 over Nav 1.5, both by IonWorks
T1 construct: expressed in transfected cells; host or cells: HEK 293
T1 sequence (Q14524 whole entry): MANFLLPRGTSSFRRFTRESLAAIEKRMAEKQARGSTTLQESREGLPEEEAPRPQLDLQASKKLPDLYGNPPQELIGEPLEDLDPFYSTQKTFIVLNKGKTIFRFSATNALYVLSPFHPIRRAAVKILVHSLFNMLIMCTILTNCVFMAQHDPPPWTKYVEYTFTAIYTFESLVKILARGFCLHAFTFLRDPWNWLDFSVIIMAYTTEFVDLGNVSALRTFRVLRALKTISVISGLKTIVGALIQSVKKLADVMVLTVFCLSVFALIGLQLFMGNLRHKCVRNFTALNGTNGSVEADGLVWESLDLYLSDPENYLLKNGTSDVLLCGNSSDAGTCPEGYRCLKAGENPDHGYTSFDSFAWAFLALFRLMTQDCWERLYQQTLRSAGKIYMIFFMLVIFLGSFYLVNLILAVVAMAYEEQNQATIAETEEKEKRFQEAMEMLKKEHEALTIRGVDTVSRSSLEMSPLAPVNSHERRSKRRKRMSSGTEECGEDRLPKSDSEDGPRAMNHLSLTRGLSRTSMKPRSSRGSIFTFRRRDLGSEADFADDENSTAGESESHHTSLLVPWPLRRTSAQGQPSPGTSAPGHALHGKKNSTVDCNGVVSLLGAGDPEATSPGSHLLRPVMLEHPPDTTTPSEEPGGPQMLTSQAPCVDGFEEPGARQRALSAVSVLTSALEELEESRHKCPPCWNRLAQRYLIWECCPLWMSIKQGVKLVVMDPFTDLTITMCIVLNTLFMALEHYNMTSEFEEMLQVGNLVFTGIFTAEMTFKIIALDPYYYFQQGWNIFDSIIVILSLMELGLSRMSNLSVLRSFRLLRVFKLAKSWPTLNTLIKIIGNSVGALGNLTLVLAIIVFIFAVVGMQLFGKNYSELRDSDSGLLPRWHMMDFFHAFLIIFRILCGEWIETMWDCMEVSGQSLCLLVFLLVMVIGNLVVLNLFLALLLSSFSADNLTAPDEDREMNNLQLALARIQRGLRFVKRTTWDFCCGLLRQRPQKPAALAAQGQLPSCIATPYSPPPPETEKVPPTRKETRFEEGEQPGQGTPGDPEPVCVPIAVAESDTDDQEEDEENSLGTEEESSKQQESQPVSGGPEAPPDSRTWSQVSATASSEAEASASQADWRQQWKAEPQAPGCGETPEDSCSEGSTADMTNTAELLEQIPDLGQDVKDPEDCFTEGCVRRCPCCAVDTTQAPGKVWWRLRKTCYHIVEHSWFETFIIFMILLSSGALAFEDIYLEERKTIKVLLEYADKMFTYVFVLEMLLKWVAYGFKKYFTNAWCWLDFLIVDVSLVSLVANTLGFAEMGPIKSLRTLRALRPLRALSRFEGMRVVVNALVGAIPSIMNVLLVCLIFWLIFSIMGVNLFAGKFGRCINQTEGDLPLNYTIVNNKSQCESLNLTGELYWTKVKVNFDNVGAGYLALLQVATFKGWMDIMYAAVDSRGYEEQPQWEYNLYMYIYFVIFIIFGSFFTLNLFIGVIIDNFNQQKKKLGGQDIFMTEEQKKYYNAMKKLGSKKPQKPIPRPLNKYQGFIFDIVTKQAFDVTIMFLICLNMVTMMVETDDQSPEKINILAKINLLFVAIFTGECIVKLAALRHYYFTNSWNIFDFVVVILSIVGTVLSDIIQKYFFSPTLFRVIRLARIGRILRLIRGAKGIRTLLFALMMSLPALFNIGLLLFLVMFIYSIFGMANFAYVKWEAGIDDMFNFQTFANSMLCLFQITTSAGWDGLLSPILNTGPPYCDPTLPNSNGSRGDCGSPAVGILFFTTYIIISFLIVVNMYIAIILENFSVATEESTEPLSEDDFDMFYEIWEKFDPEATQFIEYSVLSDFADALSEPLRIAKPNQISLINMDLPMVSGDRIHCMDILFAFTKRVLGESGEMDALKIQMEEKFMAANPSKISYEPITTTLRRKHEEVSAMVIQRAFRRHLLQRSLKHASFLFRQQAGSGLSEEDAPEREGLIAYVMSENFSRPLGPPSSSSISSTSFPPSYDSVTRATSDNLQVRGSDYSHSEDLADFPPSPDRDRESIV
Experimental: IonWorks® Experimental Procedure
Compounds were tested on human Nav 1.7 and Nav 1.5 channels stably expressed in HEK 293 cells. Sodium current measurements on IonWorks Quattro: An automated patch-clamp assay on the IonWorks Quattro platform (Molecular Devices) was used to measure state-dependent inhibition of human Nav 1.7 and Nav 1.5 channels. Cells were sealed on a planar substrate using the Population Patch Plate (PPC) technology. Electrical access was obtained using both nystatin and amphotericin. A double-pulse protocol was used for the determination of IC50 values for inactivated state block. Nav 1.7 and Nav 1.5 expressing cells were voltage clamped at −100 mV and −110 mV, respectively. A depolarizing prepulse to −10 mV (Nav 1.7) or −30 mV (Nav 1.5) for 1000 ms followed by a 10 ms repolarization to ˜100 mV (Nav1.7) or −110 mV (Nav 1.5) was given to generate fractional channel inactivation of ˜50%, followed by a 10 ms test pulse to −10 mV (Nav 1.7) or −30 mV (Nav 1.5) to measure peak current in control conditions and after compound addition. The following recording solutions were used (mM). External: 150 NaCl, 2 CaCl2, 5 KCl, 1 Mg Cl2, 10 HEPES, 12 Dextrose; internal: 120 CsF, 30 CsCl, 10 EGTA, 5 HEPES, 5 NaF, 2 MgCl2.
For all electrophysiology experiments, offline analysis was used to determine percent inhibition as a function of drug concentration. IC50 values were determined by fitting to the Hill equation.
The various compounds in Examples 1 through 4 and Tables 1 through 3 exemplified above were assayed for activity and selectivity using the foregoing IonWorks® technique. The results are reported in the following paragraph in a format expressing the identification of the compound with reference Example and compound (e.g. Ex 1-9 is Example 1, compound 9) followed by the observed potency in nM and the ratio of Nav1.7 potency: Nav1.5 potency as described here. Thus, Ex1-9: 1.7=65/ratio=641 identifies compound Example 1, compound 9 as having 65 nM potency for the Nav 1.7 sodium ion channel (as measured by IonWorks®) and a ratio of 641 Nav 1.7: Nav 1.5 potency, determined by IonWorks® measurement.

[2] = target: T2, human Nav 1.7 channels stably expressed in HEK 293 cells (Homo sapiens, UniProt Q15858); test: IonWorks Quattro automated patch-clamp, inactivated state block of Nav 1.7; format: cell-based; settings: double-pulse protocol, HEK 293 cells held at -100 mV, read-out: potency for the Nav 1.7 sodium ion channel (IC50, IonWorks)
T2 construct: expressed in transfected cells; host or cells: HEK 293
T2 sequence (Q15858 whole entry): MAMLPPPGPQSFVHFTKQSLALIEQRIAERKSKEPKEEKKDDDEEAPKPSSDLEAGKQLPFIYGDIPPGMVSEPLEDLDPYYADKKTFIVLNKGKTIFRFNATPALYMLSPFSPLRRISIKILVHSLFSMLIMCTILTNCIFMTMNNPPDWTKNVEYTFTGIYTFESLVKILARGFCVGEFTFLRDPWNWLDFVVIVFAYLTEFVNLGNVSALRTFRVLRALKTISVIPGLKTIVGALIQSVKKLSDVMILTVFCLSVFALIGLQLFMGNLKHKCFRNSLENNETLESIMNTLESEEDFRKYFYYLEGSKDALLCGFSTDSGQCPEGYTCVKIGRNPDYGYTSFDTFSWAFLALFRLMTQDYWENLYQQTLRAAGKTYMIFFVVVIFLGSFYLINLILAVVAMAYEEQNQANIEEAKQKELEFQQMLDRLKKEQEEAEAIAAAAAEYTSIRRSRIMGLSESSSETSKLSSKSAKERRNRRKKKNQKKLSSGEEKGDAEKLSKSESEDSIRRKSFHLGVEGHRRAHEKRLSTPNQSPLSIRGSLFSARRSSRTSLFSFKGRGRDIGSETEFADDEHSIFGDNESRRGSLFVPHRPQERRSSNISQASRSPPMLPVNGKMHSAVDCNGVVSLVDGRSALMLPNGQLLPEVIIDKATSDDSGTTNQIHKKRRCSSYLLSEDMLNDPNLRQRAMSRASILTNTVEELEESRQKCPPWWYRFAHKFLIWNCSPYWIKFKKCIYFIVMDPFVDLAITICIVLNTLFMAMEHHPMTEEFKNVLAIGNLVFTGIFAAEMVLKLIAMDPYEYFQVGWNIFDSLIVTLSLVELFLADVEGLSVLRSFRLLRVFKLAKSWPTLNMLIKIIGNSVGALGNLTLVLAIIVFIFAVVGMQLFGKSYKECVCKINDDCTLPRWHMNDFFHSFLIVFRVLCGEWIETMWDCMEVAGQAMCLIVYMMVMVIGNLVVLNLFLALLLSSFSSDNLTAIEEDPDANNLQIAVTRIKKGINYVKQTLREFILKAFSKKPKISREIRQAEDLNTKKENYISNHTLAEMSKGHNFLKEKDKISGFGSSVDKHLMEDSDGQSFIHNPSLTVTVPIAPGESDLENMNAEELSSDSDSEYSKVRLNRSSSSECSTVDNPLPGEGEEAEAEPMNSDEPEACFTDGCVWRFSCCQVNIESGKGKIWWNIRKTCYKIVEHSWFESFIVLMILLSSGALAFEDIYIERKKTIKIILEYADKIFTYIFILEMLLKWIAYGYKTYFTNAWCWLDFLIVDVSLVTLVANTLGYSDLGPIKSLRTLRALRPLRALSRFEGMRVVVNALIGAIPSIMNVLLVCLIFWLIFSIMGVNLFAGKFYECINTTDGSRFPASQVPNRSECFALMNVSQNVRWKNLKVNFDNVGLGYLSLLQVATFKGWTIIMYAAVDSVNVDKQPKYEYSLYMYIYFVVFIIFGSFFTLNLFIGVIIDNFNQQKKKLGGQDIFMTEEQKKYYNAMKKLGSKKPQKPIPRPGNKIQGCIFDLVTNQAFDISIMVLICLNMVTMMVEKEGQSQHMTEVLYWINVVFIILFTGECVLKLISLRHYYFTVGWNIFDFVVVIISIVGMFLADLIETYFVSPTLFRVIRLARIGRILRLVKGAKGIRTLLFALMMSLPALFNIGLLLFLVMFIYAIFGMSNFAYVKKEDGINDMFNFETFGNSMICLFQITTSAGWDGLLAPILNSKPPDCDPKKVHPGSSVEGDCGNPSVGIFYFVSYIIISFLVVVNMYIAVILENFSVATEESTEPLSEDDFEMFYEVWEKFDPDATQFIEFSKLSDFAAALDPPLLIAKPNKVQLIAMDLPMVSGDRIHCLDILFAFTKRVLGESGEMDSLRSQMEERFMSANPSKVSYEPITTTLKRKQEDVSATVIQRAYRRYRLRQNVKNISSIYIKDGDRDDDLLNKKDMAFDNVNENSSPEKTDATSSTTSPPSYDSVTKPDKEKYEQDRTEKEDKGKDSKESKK
Outline: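 Inactivated-state block was recorded by automated perforated patch (nystatin plus amphotericin) using a double-pulse protocol. Holding was −100 mV (Nav1.7) or −110 mV (Nav1.5), with a 1000 ms prepulse to −10/−30 mV giving ~50% inactivation, then a 10 ms test pulse. IC50s came from Hill fits of peak current inhibition.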

IC50 [2] [nM] | Structure (SMILES) | ratio of Nav 1.7 : Nav 1.5 potency (IonWorks) [1]
41 | O=S(=O)(Nc1nccs1)c1ccc(NCCCCNC[C@@H]2CCCN2)c(C(F)(F)F)c1 [Ex 7-04, 4-[(4-{[(2S)-pyrrolidin-2-ylmethyl]amino}butyl)amino]-N-1,3-thiazol-2-yl-3-(trifluoromethyl)benzenesulfonamide] | > 800
27 | O=S(=O)(Nc1nccs1)c1ccc(NCCCCNC[C@@H]2CCCN2)c(Cl)c1 [Ex 7-12, 3-chloro-4-[(4-{[(2S)-pyrrolidin-2-ylmethyl]amino}butyl)amino]-N-1,3-thiazol-2-ylbenzenesulfonamide] | > 1200
59 | O=S(=O)(Nc1nccs1)c1cc(Cl)c(NCCCCNC[C@@H]2CC(F)(F)CN2)cc1F [Ex 8-2, (S)-5-chloro-4-((4-(((4,4-difluoropyrrolidin-2-yl)methyl)amino)butyl)amino)-2-fluoro-N-(thiazol-2-yl)benzenesulfonamide] | 460
32 | O=S(=O)(Nc1nccs1)c1cc(Cl)c(NCCCCNC[C@@H]2C[C@@H](c3ccccc3)CN2)cc1F [Ex 8-4, 5-chloro-2-fluoro-4-{[4-({[(2S,4S)-4-phenyl-pyrrolidin-2-yl]methyl}-amino)butyl]amino}-N-1,3-thiazol-2-yl-benzenesulfonamide] | > 1030

Further lines, the compound ahead of its results:

Structure (SMILES) | IC50 [2] [nM] | ratio of Nav 1.7 : Nav 1.5 potency (IonWorks) [1]
NC1CCN(CCCCNc2cc(F)c(S(=O)(=O)Nc3nccs3)cc2Cl)CC1 [Ex 1-49, 4-{[4-(4-aminopiperidin-1-yl)butyl]amino}-5-chloro-2-fluoro-N-1,3-thiazol-2-ylbenzenesulfonamide] | 33 | > 1000
NCC1(c2ccccc2)CCN(CCCCNc2cc(F)c(S(=O)(=O)Nc3nccs3)cc2Cl)C1 (stereo not shown) [Ex 1-50, 4-({4-[3-(aminomethyl)-3-phenylpyrrolidin-1-yl]butyl}amino)-5-chloro-2-fluoro-N-1,3-thiazol-2-ylbenzenesulfonamide] | 46 | > 717
NCC1CN(CCCCNc2cc(F)c(S(=O)(=O)Nc3nccs3)cc2Cl)C1 [Ex 1-51, 4-({4-[3 (aminomethyl)azetidin-1-yl]butyl}amino)-5-chloro-2-fluoro-N-1,3-thiazol-2-ylbenzenesulfonamide] | 15 | > 2200
O=S(=O)(Nc1nccs1)c1cc(Cl)c(NCCCCN2CCC3CCC(C2)N3)cc1F (stereo not shown) [Ex 1-52, 5-chloro-4-{[4-(3,9-diazabicyclo[4.2.1]non-3-yl)butyl]amino}-2-fluoro-N-1,3-thiazol-2-ylbenzenesulfonamide] | 96 | > 343
O=S(=O)(Nc1nccs1)c1cc(Cl)c(NCCCCN2CCCNCC2)cc1F [Ex 1-53, 5-chloro-4-{[4-(1,4-diazepan-1-yl)butyl]-amino}-2-fluoro-N-1,3-thiazol-2-yl-benzenesulfonamide] | 79 | > 418
O=S(=O)(Nc1nccs1)c1cc(Cl)c(NC[C@H]2C[C@@H]3CN(C[C@@H]4CCCN4)C[C@@H]3C2)cc1F [Ex 6-8, 5-chloro-2-fluoro-4-[({(3aR,5R,6aS)-2-[(2S)-pyrrolidin-2-ylmethyl]octahydrocyclopenta[c]pyrrol-5-yl}methyl)amino]-N-1,3-thiazol-2-ylbenzenesulfonamide] | 39 | > 850
O=S(=O)(Nc1nccs1)c1cc(Cl)c(NCCCC(Cc2ccccc2)NC[C@@H]2CCCN2)cc1F (stereo partly drawn) [Ex 6-9, 5-chloro-2-fluoro-4-[(5-phenyl-4-{[(2S)-pyrrolidin-2-ylmethyl]amino}pentyl)amino]-N-1,3-thiazol-2-ylbenzenesulfonamide] | 17 | 1530
